Results published in patent US12408667B2, “Herbicidal mixtures comprising isoxaflutole, pyroxasulfone and an imidazolinone herbicide; and their use in soybean and cotton cultures” (BASF SE, priority 2018, dated 2025).

Tested on: GALAP (Galium aparine)
Assay: greenhouse experiment, herbicidal action, evaluated on a scale from 0 to 100
Assay type: in vivo
Conditions: pre-emergence greenhouse
From the text: Synergism can be described as an interaction where the combined effect of two or more compounds is greater than the sum of the individual effects of each of the compounds. The presence of a synergistic effect in terms of percent control, between two mixing partners (X and Y) can be calculated using the Colby equation (Colby, S. R., 1967, Calculating Synergistic and Antagonistic Responses in Herbicide Combinations, Weeds, 15, 21-22): E=X+Y−XY/100
When the observed combined control effect is greater than the expected (calculated) combined control effect (E), then the combined effect is synergistic.
The culture containers used were plastic flowerpots containing loamy sand with approximately 3.0% of humus as the substrate. The seeds of the test plants were sown separately for each species. For pre-emergence treatment, the active ingredients, which had been suspended or emulsified in water, were applied directly after sowing by means of finely distributing nozzles. The containers were irrigated gently to promote germination and growth and subsequently covered with transparent plastic hoods until the plants had rooted. This cover caused uniform germination of the test plants, unless this had been impaired by the active ingredients. […] During this time, the plants were tended, and their response to the individual treatments was evaluated. […]

For `CS(=O)(=O)c1cc(C(F)(F)F)ccc1C(=O)c1cnoc1C1CC1` [Isoxaflutole, isoxaflutole], the “Herbicidal action against GALAP, Found” value (Isoxaflutole 12.5 g/ha alone, 20 days, scale 0 to 100) was 0 and the “Herbicidal action against GALAP, Found” value (Isoxaflutole 25 g/ha alone, test period 20 days, scale 0 to 100 (100 = no emergence or complete destruction)) was 0.
